Values of other authors, collected in patent publication US20230019999A1, “COMBINATION DRUG” (Chugai Seiyaku Kabushiki Kaisha, priority 2019, published 2023).

Test system: lung cancer cells positive for the CCDC6-RET fusion gene
Conditions: non-clinical studies, Non Patent Literatures 9 and 10

For `CCc1cc2c(cc1N1CCC(N3CCOCC3)CC1)C(C)(C)c1[nH]c3cc(C#N)ccc3c1C2=O` [Alectinib, 9-ethyl-6,6-dimethyl-8-[4-(morpholin-4-yl)-piperidin-1-yl]-11-oxo-6,11-dihydro-5H-benzo[b]carbazole-3-carbonitrile], the anti-tumor effect is listed as “exhibit an anti-tumor effect”.
